The text below walks through data of US6383745B1, “Methods of screening for anti-microbial utilizing aarC and compositions thereof” (priority 1997, dated 2002).

The subject of one assay is P. stuartii. The conditions noted are these: cited from earlier work; for resistance rates being reported: P. stuartii, first- and second-generation cephalosporins susceptible to its β-lactamases.
Another assay relates to P. stuartii PR500. Put plainly: Level of aminoglycoside resistance of strain PR500. The format is cell-based, Providencia stuartii. The conditions noted are these: PR500 (PR50 containing pR401 and pACYC184.aarG). On the procedure: Therefore, strain PR500, which is a derivative of the wild-type P. stuartii PR50 [Rather, P. et al., J. Bacteriol. 175:6492-6498 (1993)], was used. PR500 was generated by introducing into PR50 both pR401 (aac(2′)-lacZ) and pACYC184.aarG, a compatible pACYC184 derivative containing the aarG gene. PR500 forms white colonies on plates containing X-gal and has levels of aminoglycoside resistance to 4 μg/ml of gentamicin. Selection of mutants was achieved by plating approximately 10^8 cells of PR500 on LB plates containing 15 μg/ml of gentamicin and X-gal (to select and identify regulatory mutants), ampicillin (150 μg/ml) to maintain pR401 and chloramphenicol (100 μg/ml) to maintain pACYC184.aarG. As observed previously, colonies arose at a frequency of […] [Rather, P. et al., J. Bacteriol. 175:6492-6498 (1993)]. […] While not limiting the present invention to any particular mechanism, these colonies presumably resulted from mutations in a trans-acting regulator of aac(2′)-la since expression of both the chromosomal copy of aac(2′)-la and the plasmid encoded aac(2′)-lacZ fusion were increased. One class of mutants which formed small blue colonies was identified and a representative isolate, PR60, was characterized. Introduction by electroporation (Gene Pulser, Biorad) of the previously cloned aarA, aarB, and aarD genes [Macinga, D. R. et al., Mol. Microbiol. […]

For `Cc1nnc(SCC2=C(C(=O)O)N3C(=O)[C@@H](NC(=O)Cn4cnnn4)[C@H]3SC2)s1` [cefazolin], the “resistance rates being reported” value in the assay with P. stuartii is reported as 94%. In the case of `CC1=C(C(=O)O)N2C(=O)[C@@H](NC(=O)[C@H](N)c3ccccc3)[C@H]2SC1` [cephalexin], the “resistance rates being reported” value with P. stuartii is given as 100%. For the molecule `O=C(Cc1cccs1)N[C@@H]1C(=O)N2C(C(=O)[O-])=C(C[n+]3ccccc3)CS[C@H]12` [cephaloridine], the “resistance rates being reported” value with P. stuartii is listed as 82%. Consider `CC(=O)OCC1=C(C(=O)O)N2C(=O)[C@@H](NC(=O)Cc3cccs3)[C@H]2SC1` [cephalothin], for which, in the assay with P. stuartii, the “resistance rates being reported” value is on record as 97%. With gentamicin, the “proportions of P. stuartii resistant” value in the assay on P. stuartii (both in wards where the drug is widely used and in others (e.g., geriatric wards) where it was not used) was 80-100%. For the same molecule, in the assay on P. stuartii PR500, the “levels of aminoglycoside resistance” value was 4 µg/mL.
